From the NIST ThermoML archive (doi:10.1016/j.jct.2018.08.007)
Several values for one entry are separate records, joined by “and”; a condition that tells them apart may be missing. Identical values can stand only once.

Assay: mn = molality of the nth substance listed, in mol/kg
Conditions: 100 kPa, Liquid; for viscosity: Capillary tube (Ostwald / Ubbelohde) method; for mass density: Vibrating tube method

CN(CC(=O)O)C(=N)N [N-amidinosarcasine] + O
Conditions	mass density, 293.15 K [kg/m3]	mass density, 298.15 K [kg/m3]	mass density, 303.15 K [kg/m3]	mass density, 308.15 K [kg/m3]	mass density, 313.15 K	viscosity, 293.15 K [mPa·s]	viscosity, 298.15 K [mPa·s]	viscosity, 303.15 K [mPa·s]	viscosity, 308.15 K [mPa·s]	viscosity, 313.15 K [mPa·s]
m1 = 0.02	–	–	–	–	–	1.008	0.895	0.804	0.723	0.658
m1 = 0.03	–	–	–	–	–	1.011	0.898	0.806	0.727	0.659
m1 = 0.0306	999.51	998.33	996.9	995.23	993.35 kg/m3	–	–	–	–	–
m1 = 0.04	999.9	998.72	997.28	995.6	993.7 kg/m3	1.014	0.901	0.808	0.729	0.662
m1 = 0.0406	999.93	998.74	997.31	995.63	993.73 kg/m3	–	–	–	–	–
m1 = 0.0477	1000.23	999.04	997.6	995.91	994 kg/m3	–	–	–	–	–
m1 = 0.05	1000.33	999.13	997.69	996	994.09 kg/m3	1.017	0.904	0.81	0.731	0.664
m1 = 0.0548	1000.53	999.33	997.89	996.2	994.28 kg/m3	–	–	–	–	–
m1 = 0.0564	1000.59	999.4	997.96	996.26	994.35 kg/m3	–	–	–	–	–
m1 = 0.0597	1000.73	999.53	998.09	996.39	994.47 kg/m3 and 994.48 kg/m3	1.019	0.907	0.811	0.733	0.665
m1 = 0.0675	1001.06	999.86	998.41	996.71	994.79 kg/m3	–	–	–	–	–
m1 = 0.0701	1001.17	999.96	998.52	996.82	994.89 kg/m3	1.024	0.91	0.817	0.737	0.669
m1 = 0.0727	1001.27	1000.07	998.63	996.92	995 kg/m3	–	–	–	–	–
m1 = 0.0782	1001.5	1000.29	998.85	997.15	995.22 kg/m3	–	–	–	–	–
m1 = 0.08	1001.58	1000.37	998.93	997.22	995.3 kg/m3	1.028	0.913	0.818	0.738	0.67
m1 = 0.0898	1001.98	1000.77	999.34	997.63	995.71 kg/m3	–	–	–	–	–
m1 = 0.09	1001.99	1000.78	999.34	997.64	995.71 kg/m3	1.033	0.917	0.823	0.74	0.672
m1 = 0.0926	1002.1	1000.89	999.45	997.74	995.82 kg/m3	–	–	–	–	–
m1 = 0.1038	1002.56	1001.35	999.92	998.21	996.3 kg/m3	–	–	–	–	–
m1 = 0.1113	1002.87	1001.65	1000.23	998.53	996.62 kg/m3	–	–	–	–	–
m1 = 0.1207	1003.25	1002.04	1000.62	998.93	997.03 kg/m3	–	–	–	–	–
m1 = 0.1287	1003.58	1002.36	1000.96	999.26	997.39 kg/m3	–	–	–	–	–
m1 = 0.1326	1003.74	1002.52	1001.12	999.43	997.56 kg/m3	–	–	–	–	–

CN1CC(=O)NC1=N [creatinine] + O
Conditions	mass density, 293.15 K [kg/m3]	mass density, 298.15 K [kg/m3]	mass density, 303.15 K [kg/m3]	mass density, 308.15 K [kg/m3]	mass density, 313.15 K [kg/m3]	viscosity, 293.15 K [mPa·s]	viscosity, 298.15 K [mPa·s]	viscosity, 303.15 K [mPa·s]	viscosity, 308.15 K [mPa·s]	viscosity, 313.15 K [mPa·s]
m1 = 0.1001	1001.16	999.95	998.49	996.82	994.94	–	–	–	–	–
m1 = 0.147	1002.53	1001.29	999.82	998.13	996.21	–	–	–	–	–
m1 = 0.2001	–	–	–	–	–	1.053	0.935	0.837	0.755	0.685
m1 = 0.202	1004.12	1002.86	1001.37	999.64	997.69	–	–	–	–	–
m1 = 0.25	1005.5	1004.22	1002.71	1000.97	999	–	–	–	–	–
m1 = 0.2999	–	–	–	–	–	1.077	0.956	0.856	0.772	0.7
m1 = 0.3023	1006.99	1005.69	1004.16	1002.4	1000.43	–	–	–	–	–
m1 = 0.3496	1008.33	1007.01	1005.48	1003.7	1001.71	–	–	–	–	–
m1 = 0.3996	–	–	–	–	–	1.102	0.978	0.875	0.789	0.715
m1 = 0.4028	1009.83	1008.48	1006.94	1005.13	1003.12	–	–	–	–	–
m1 = 0.5002	–	–	–	–	–	1.126	0.999	0.894	0.806	0.73
m1 = 0.5014	1012.57	1011.2	1009.63	1007.79	1005.76	–	–	–	–	–
m1 = 0.5514	1013.95	1012.56	1010.97	1009.12	1007.08	–	–	–	–	–
m1 = 0.6	–	–	–	–	–	1.15	1.02	0.912	0.822	0.745
m1 = 0.6018	1015.33	1013.93	1012.34	1010.48	1008.4	–	–	–	–	–
m1 = 0.6087	1015.52	1014.11	1012.53	1010.65	1008.61	–	–	–	–	–
m1 = 0.6491	1016.62	1015.21	1013.61	1011.72	1009.65	–	–	–	–	–
m1 = 0.7	–	–	–	–	–	1.173	1.04	0.93	0.838	0.759
